# Test results as given in the supplement of paper PMC10307832.
# Tests used:
# Assay in all cases: relative viability (nuclei count vs DMSO), 5 days (fraction); higher = more cells survive
# Selisistat + Navitoclax = compound: C1CC(C2=C(C1)C3=C(N2)C=CC(=C3)Cl)C(=O)N [Selisistat] + CC1(C)CCC(c2ccc(Cl)cc2)=C(CN2CCN(c3ccc(C(=O)NS(=O)(=O)c4ccc(N[C@H](CCN5CCOCC5)CSc5ccccc5)c(S(=O)(=O)C(F)(F)F)c4)cc3)CC2)C1 [Navitoclax] (partner 0.5 µM)
# How it was run: (§1)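 Relative viability was taken as the ratio of nuclei in treated wells to nuclei in vehicle wells. Lung cancer cell lines in 1536-well plates received compounds by pin tool one day after seeding, either one drug alone or a fixed anchor-drug dose plus five library-drug doses (not always all listed) in √10 steps. Nuclei were counted on 4× images after 5 days of treatment, and values are medians of duplicate plates.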
# Selisistat + Pemetrexed = compound: C1CC(C2=C(C1)C3=C(N2)C=CC(=C3)Cl)C(=O)N [Selisistat] + Nc1nc2[nH]cc(CCc3ccc(C(=O)N[C@@H](CCC(=O)O)C(=O)O)cc3)c2c(=O)[nH]1 [Pemetrexed] (partner 0.2 µM)
# How it was run: as §1
# Selisistat + Bortezomib = compound: C1CC(C2=C(C1)C3=C(N2)C=CC(=C3)Cl)C(=O)N [Selisistat] + CC(C)C[C@H](NC(=O)[C@H](Cc1ccccc1)NC(=O)c1cnccn1)B(O)O [Bortezomib] (partner 0.002 µM)
# How it was run: as §1
# Serdemetan + Phenformin = compound: c1ccc2c(CCNc3ccc(Nc4ccncc4)cc3)c[nH]c2c1 [Serdemetan] + N=C(N)NC(=N)NCCc1ccccc1 [Phenformin] (partner 250 µM)
# How it was run: as §1
Cell Line,relative viability (Selisistat + Navitoclax; first compound 0.4 µM),relative viability (Selisistat + Navitoclax; first compound 1.265 µM),relative viability (Selisistat + Navitoclax; first compound 4 µM),relative viability (Selisistat + Navitoclax; first compound 12.65 µM),relative viability (Selisistat + Navitoclax; first compound 40 µM),relative viability (Selisistat + Pemetrexed; first compound 0.4 µM),relative viability (Selisistat + Pemetrexed; first compound 1.265 µM),relative viability (Selisistat + Pemetrexed; first compound 12.65 µM),relative viability (Selisistat + Pemetrexed; first compound 40 µM),relative viability (Selisistat + Bortezomib; first compound 0.4 µM),relative viability (Selisistat + Bortezomib; first compound 1.265 µM),relative viability (Selisistat + Bortezomib; first compound 12.65 µM),relative viability (Selisistat + Bortezomib; first compound 40 µM),relative viability (Serdemetan + Phenformin; first compound 0.04 µM),relative viability (Serdemetan + Phenformin; first compound 0.1265 µM),relative viability (Serdemetan + Phenformin; first compound 0.4 µM),relative viability (Serdemetan + Phenformin; first compound 4 µM),relative viability (Selisistat + Pemetrexed; first compound 4 µM),relative viability (Selisistat + Bortezomib; first compound 4 µM),relative viability (Serdemetan + Phenformin; first compound 1.265 µM)
LCLC-97TM1,0.535,0.476,0.621,0.473,0.483,0.153,0.177,0.155,0.206,0.696,0.77,0.555,0.553,0.455,0.382,0.463,0.41,,,
LOU-NH91,0.695,0.637,0.58,0.664,0.707,0.329,0.339,0.395,0.459,0.499,0.505,0.511,0.515,0.699,0.733,0.478,0.665,0.42,0.448,0.669
LU99A,0.797,0.864,0.864,0.915,0.966,0.169,0.176,0.184,0.163,1.17,1.15,1.16,1.11,0.887,0.891,0.763,0.354,0.21,1.33,0.417
LXF-289,0.95,0.966,0.895,0.901,0.92,0.925,1.04,0.841,0.959,1.02,1.05,0.937,0.984,0.483,0.522,0.5,0.517,0.83,0.832,0.457
NCI-H23,0.853,0.936,,0.943,0.876,0.649,0.742,0.619,0.595,1.02,1.11,1.1,1.08,0.855,0.752,0.887,0.746,,,0.56
NCI-H322M,1.26,1.18,,1.26,1.47,0.558,0.633,0.515,0.618,1.36,1.25,1.42,1.39,0.667,0.788,0.774,0.706,,,0.718
NCI-H441,0.608,0.619,,0.697,0.626,0.31,0.247,0.271,0.279,0.74,0.588,0.467,0.482,0.793,0.917,0.791,0.517,0.293,,0.709
NCI-H460,1.2,1.16,,1.08,1.3,0.0578,0.0622,0.0572,0.0629,1.04,1.14,1.02,1.12,0.47,0.505,0.446,0.09,0.0632,,0.145
NCI-H520,1.06,0.959,1.18,1.13,1.03,0.776,0.676,0.668,0.644,0.525,0.495,0.648,0.738,0.513,0.657,0.596,0.38,0.647,0.619,
NCI-H596,0.952,0.959,0.944,0.904,0.895,0.514,0.546,0.475,0.478,1.01,0.105,0.947,1,0.812,0.692,0.735,0.438,0.485,0.817,0.63
NCI-H647,1.11,,,0.993,1.13,0.165,0.203,0.174,0.178,0.95,0.987,0.885,1.16,0.583,0.669,0.511,0.335,0.193,,0.288
NCI-H838,1.31,1.2,1.13,1.12,1.22,0.243,0.243,0.228,0.226,0.803,0.73,0.878,1.01,0.564,0.551,0.544,0.641,0.222,0.603,0.427
NCI-H1355,1.01,0.887,,1.03,1.03,1.12,1.08,1.08,1.11,1.18,1.21,1.13,1.35,0.447,0.444,0.466,0.432,1,,0.332
NCI-H1437,1.13,1.1,1.1,1.01,0.919,0.321,0.328,0.28,0.299,0.575,0.451,0.431,0.515,0.314,0.32,0.315,0.37,0.321,0.378,0.298
NCI-H1650,1.16,1.41,1.14,1.31,1.12,0.359,0.348,0.397,0.326,0.281,0.205,0.202,0.22,0.424,0.462,0.268,0.285,0.354,0.222,0.391
NCI-H1651,0.902,0.974,0.934,1,0.945,0.64,0.673,0.519,0.497,1.02,0.939,0.874,0.847,0.283,0.319,0.224,0.213,0.51,0.868,0.205
NCI-H1666,1.04,1.04,0.911,0.77,0.916,0.948,0.803,0.822,0.853,1.07,0.797,0.739,0.547,0.55,0.557,0.535,0.412,0.871,0.612,0.529
